The record followed here is ChEMBL document CHEMBL3352342, “Nucleotide-binding oligomerization domain (NOD) inhibitors: a rational approach toward inhibition of NOD signaling pathway” (J Med Chem, 2014).

The target of the first test is Nucleotide-binding oligomerization domain-containing protein 2 (Homo sapiens, UniProt Q9HC29). Description: Inhibition of NOD2 (unknown origin) expressed in HEK293T cells coexpressing NF-kappaB driven luciferase reporter gene by HTS primary assay. Type of test: cell-based, HEK-293T. (A reporter such as luciferase makes a cellular process visible.)
Sequence of Nucleotide-binding oligomerization domain-containing protein 2 (Q9HC29 whole entry, the tested form may be a part): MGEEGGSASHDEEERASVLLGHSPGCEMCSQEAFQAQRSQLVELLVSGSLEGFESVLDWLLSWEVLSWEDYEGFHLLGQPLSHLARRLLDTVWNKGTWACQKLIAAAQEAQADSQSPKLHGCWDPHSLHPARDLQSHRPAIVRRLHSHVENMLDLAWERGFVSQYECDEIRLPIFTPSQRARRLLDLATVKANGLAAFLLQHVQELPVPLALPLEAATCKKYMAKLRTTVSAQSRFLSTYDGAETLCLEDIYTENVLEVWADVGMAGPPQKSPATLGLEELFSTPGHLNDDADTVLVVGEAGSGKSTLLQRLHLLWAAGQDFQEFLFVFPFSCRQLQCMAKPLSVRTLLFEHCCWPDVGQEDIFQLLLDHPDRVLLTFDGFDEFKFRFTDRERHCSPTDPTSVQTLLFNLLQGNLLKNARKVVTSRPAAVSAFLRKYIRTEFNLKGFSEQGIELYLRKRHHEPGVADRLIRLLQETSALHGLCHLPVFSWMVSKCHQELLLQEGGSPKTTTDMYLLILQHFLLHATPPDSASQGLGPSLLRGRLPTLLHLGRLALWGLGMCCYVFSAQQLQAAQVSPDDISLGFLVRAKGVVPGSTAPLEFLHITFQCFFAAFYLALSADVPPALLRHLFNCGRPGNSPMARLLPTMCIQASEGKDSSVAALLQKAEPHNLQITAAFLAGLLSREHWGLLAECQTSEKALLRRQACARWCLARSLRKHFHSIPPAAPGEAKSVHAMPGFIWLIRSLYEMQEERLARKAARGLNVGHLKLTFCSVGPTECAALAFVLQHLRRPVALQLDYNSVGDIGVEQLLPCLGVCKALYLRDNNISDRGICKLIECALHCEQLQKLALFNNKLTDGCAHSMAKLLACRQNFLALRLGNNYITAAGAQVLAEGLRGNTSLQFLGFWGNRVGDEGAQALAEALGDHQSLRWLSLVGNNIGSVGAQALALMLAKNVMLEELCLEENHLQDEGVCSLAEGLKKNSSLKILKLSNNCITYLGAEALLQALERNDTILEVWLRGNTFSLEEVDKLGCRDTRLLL
By IC50 is commonly meant the concentration needed to halve the response being measured. `CCCCCn1c(SCCc2ccccc2)nc2c1c(=O)[nH]c(=O)n2C`: the IC50 is above 20000 nM. Take `C/C=C/Cn1c(SCCCc2ccccc2)nc2c1c(=O)[nH]c(=O)n2C`: the IC50 amounted to 12700 nM. This counts as double-digit micromolar. With `Cc1ccc(S(=O)(=O)n2c(N)nc3ccccc32)cc1`, the IC50 is above 20000 nM.

A further test concerns the target T1, Nucleotide-binding oligomerization domain-containing protein 1 (Homo sapiens, UniProt Q9Y239).
T1 sequence (Q9Y239 whole entry): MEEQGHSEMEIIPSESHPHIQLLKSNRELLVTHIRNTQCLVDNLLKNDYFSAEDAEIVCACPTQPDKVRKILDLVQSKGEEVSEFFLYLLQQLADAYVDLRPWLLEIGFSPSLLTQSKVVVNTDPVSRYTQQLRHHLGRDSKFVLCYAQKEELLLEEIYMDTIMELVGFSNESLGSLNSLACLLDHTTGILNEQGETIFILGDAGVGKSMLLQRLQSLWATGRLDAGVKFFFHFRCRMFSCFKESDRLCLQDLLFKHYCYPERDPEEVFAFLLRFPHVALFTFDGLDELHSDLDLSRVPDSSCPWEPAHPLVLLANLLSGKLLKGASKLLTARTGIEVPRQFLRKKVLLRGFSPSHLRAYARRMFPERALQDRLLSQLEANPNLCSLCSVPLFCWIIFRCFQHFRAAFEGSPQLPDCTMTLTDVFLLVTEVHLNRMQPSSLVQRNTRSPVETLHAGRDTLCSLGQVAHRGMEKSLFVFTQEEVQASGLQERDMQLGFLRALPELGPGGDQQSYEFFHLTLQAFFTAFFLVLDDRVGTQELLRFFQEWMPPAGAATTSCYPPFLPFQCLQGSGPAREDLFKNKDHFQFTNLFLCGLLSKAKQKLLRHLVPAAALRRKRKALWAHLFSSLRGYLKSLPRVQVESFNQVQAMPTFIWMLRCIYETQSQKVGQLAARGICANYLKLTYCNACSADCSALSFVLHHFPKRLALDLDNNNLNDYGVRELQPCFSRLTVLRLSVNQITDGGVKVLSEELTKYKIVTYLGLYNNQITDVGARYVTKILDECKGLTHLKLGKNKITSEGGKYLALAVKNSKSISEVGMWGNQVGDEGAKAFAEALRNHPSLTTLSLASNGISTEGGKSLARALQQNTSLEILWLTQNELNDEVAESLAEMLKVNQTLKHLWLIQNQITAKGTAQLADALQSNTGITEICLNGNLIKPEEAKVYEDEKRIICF
Description: Inhibition of NOD1 (unknown origin) expressed in HEK293T cells coexpressing NF-kappaB driven luciferase reporter gene by HTS primary assay. Type of test: cell-based, HEK-293T.
`O=C(Cn1c(CCNC(=O)c2ccccc2)nc2ccccc21)Nc1ccc2ccccc2c1` returned an IC50 of 1600 nM. Turning to `O=C(Cn1c(CCNC(=O)c2ccccc2)nc2ccccc21)Nc1ccc2c(c1)CCC2`, the IC50 stood at 3300 nM.

`CC(C)c1cccc(NC(=O)Cn2c(CCNC(=O)c3ccccc3)nc3ccccc32)c1` had an IC50 of 800 nM. Compared with the last compound, the IC50 is about 4.1-fold lower. On the same count and under the same terms, the figure for `O=C(Cn1c(CCNC(=O)c2ccccc2)nc2cc(Cl)ccc21)Nc1ccc2c(c1)CCC2` is 1300 nM.

Consider `O=C(Cn1c(CCNC(=O)c2ccc3ccccc3c2)nc2ccccc21)Nc1ccc2c(c1)CCC2`, for which the IC50 worked out at 3400 nM. Compared with the last compound, the IC50 is about 2.6-fold higher. With `CN(CCc1nc2ccccc2n1CC(=O)Nc1ccc2c(c1)CCC2)C(=O)c1ccccc1`, the IC50 is 400 nM. Regarding `CN(CCc1nc2ccccc2n1CC(=O)Nc1ccc2c(c1)CCC2)C(=O)c1ccc2ccccc2c1`, the IC50 was 200 nM.
